The subject of assay [1] is B16F10-Nex2 tumor cells. The assay can be described thus: Metastatic melanoma model in immunodeficient mice. It counts as in vivo, NOD/Scid/IL-2R-gamma^null mice. The conditions noted are these: 250 μg i.p. on days 1-11, lungs on day 22. Here is the method:
B16F10-Nex2 tumor cells (2×10^5) in RPMI (100 μl) were injected in both animal groups in the tail veins on day 0. Animals were sacrificed on day 22, or 10 days after the last administration of the peptide, and their lungs were examined for dark melanotic nodules.

Assay [2] concerns colorectal CT26 carcinoma cells. The assay can be described thus: Subcutaneous syngeneic colorectal carcinoma model. It counts as in vivo, Balb/c mice. Conditions: CT26 of moderate virulence (ATCC, CRL-2638); 300 μg i.p., 5 consecutive days.
Assay [3] has as its system splenocytes. The assay can be described thus: Splenocyte cytokine production in melanoma-bearing treated mice (ELISA). Type of assay: in vivo. Conditions: 300 μg i.p. 5 consecutive days. Here is the method: Mice were challenged with 5×10^5 B16F10-Nex2 cells via the i.v. route. […] Peptides at 300 μg solubilized in 10 μl distilled H2O and 90 μl of PBS were injected via i.p. route per animal, for 5 consecutive days initiating one day after tumor cell challenge. Seventeen days after tumor challenge mice were sacrificed and spleens were removed. Splenocytes after incubation in hemolysis buffer were suspended in R10 medium and plated in 6-well plates and 10^6 cells/well. Cells were incubated for 72 h with or without tumor cell lysate (from 10^5 B16F10-Nex2 cells) in triplicate. The supernatants were collected, and cytokines measured by ELISA (FIG. 11).
(In general: In an ELISA, binding on a coated surface is turned into a signal by an enzyme label.)

The test system of assay [4] is B16F10-Nex2 cells. The experiment in a line: Anti-melanoma antibodies in sera of treated mice. Type of assay: in vivo. The conditions noted are these: 1/5 diluted sera; BSA treated or untreated tumor cells.
The subject of assay [5] is CD11c+, MHC II+ bone marrow DCs. The assay can be described thus: Marker expression of bone marrow DCs with or without Poly I:C (flow cytometry). It counts as cell-based, C57Bl6 mice. The conditions noted are these: 60 h. Here is the method:
DCs were obtained from the bone marrow of 6 to 8-week-old C57Bl6 mice. Briefly, femora and tibiae from mice were removed and stripped of muscles and tendons; both bone ends were cut and bone marrow was flushed out with RPMI 1640 medium using a 21-gauge needle and syringe. Cell clusters were dissociated by passing through a cell strainer and 0.45 M ammonium chloride was added for red cell lysis. After washing the cell suspension twice in RPMI 1640, 10×10^6 bone marrow cells per well were cultured in non-treated tissue-culture 6-well plates with 4 ml of complete medium (RPMI 1640 supplemented with 2 mM glutamine, 10,000 U/mL penicillin, 10 mg/mL streptomycin, 50 μM 2-mercaptoethanol, 10% heat-inactivated fetal calf serum with GM-CSF (50 ng/ml). Half of the medium was removed on day 2 and new medium supplemented with GM-CSF (100 ng/ml) and warmed at 37° C. was added. The culture medium was entirely discarded on day 3 and replaced by fresh warmed medium with GM-CSF (50 ng/ml). On day 6, non-adherent cells in the culture supernatant and loosely adherent cells harvested by gentle washing with PBS were pooled and used as the starting cell source for the experiments.
For murine cell analysis, these were stained in ice-cold PBS containing BSA (0.5%) and EDTA (2 mM) using appropriate antibody-fluorophore conjugates. Multiparameter analysis was performed on a BD FACSCanto II analyzer (BD Biosciences) and analyzed with FlowJo software (Tree Star). The following antibodies were used: anti-MHC Class II, anti-CD11c, anti-CD8a, anti-CD3e, anti-CD4, anti-CD86, anti-CD40, anti-CD80, Prior to acquisition, cells were resuspended in PBS/BSA 0.5%/EDTA (2 mM).
DCs were centrifuged and washed once with MACS buffer. Cells (10^6) were resuspended in 45 μl of buffer and 5 μl of antibodies/fluorophore, CD11c APC, MHC II PE, CD80 FITC, CD86 VioBlue and CD40 PE. The samples were acquired in BD FACS Canto II using the FacsDiva software. The data were analyzed by using the FlowJo software.
For orientation: In flow cytometry, cells or beads pass a laser one at a time.

The subject of assay [6] is Myeloid DCs stimulated with recombinant mouse MIF. The experiment in a line: Western blotting of MIF signalling in dendritic cells pre-treated with peptide. Type of assay: cell-based. Here is the method:
Protein lysates were separated by electrophoresis, and immunoblotting analyses were performed for: total AKT, total p44/42 MAPK (ERK1/2), total IKKα, total IkBα, total NF-kB p65, phospho-AKT (Ser473), phospho-ERK1/2 (Thr202/Tyr204), phospho-IKKα/β (Ser176/180), phospho-IkBα (Ser32) and phospho-NFkB p65 (Ser536). GAPDH was assayed for loading control. HRP-conjugated secondary antibodies were used, followed by incubation with the ECL substrate (Millipore, Billerica, Mass.). All primary and secondary antibodies were purchased from Cell Signaling Technologies (Beverly, Mass., USA). Anti-CD74 receptor was also assayed (Abcam, Cambridge, UK). Phosphorylation ratios were quantified using ImageJ software. Results are represented in arbitrary units normalized to untreated control lanes.
Early incubation with MIF increased p-Akt (Ser473). […] MIF also triggered p-ERK1/2 formation in DCs.
Background: In western blotting, separated proteins are transferred to a membrane and probed.

The test system of assay [7] is human mo-DC co-cultured with allogeneic lymphocytes. The assay can be described thus: Allogeneic lymphocyte proliferation induced by mo-DC of healthy donors (CFSE). The conditions noted are these: TNF, tumor lysate and peptide; mo-DC:lymphocyte 1:30. Type of assay: cell-based. Here is the method: (§1) Mo-DC were co-cultured with allogeneic lymphocytes (DC:Ly=1:30) to evaluate their ability to induce lymphocyte proliferation. This was measured by carboxyfluorescein succinimidyl ester (CFSE—Molecular Probes) dilution and activation measured by correlation among CD4/CD25 and Foxp3 expression (Clavijo-Salomon et al., 2016).
After two days in co-culture, the dilution of CFSE in lymphocytes was evaluated as a measurement of lymphocyte proliferation.

Assay [8] has as its system mo-DC obtained from cancer patients' monocytes. The experiment in a line: Allogeneic T cell proliferation induced by cancer patients' mo-DC. Type of assay: cell-based, human. Here is the method: as §1
Since it is well known that mo-DC from cancer patients can be functionally biased, but are not always so, the patients were separated into two groups, according to their mo-DC ability to induce allogeneic T cell proliferation. Patients whose mo-DC induced less than 35% of the phytohemagglutinin A (PHA)-induced response constituted one group (“defective”) and those whose mo-DC induced a response higher than 35% of the PHA response, the other (“normal”).

For assay [9], the system named is LPS stimulated DCs characterized by CD11c+ MHC-II+. The assay can be described thus: Co-stimulatory markers of LPS stimulated murine bone-marrow DCs. Type of assay: cell-based. The text has this:
Rb9 immunomodulation of murine bone-marrow dendritic cells (DCs) was also examined focusing on co-stimulatory markers.

Assay [10] deals with B16F10-Nex2 melanoma cells. Conditions: as determined in U.S. Pat. No. 9,193,797 B2; cited from earlier work.
[11] abbreviates: 100 μg/ml peptide + 12.5 μg/ml Poly I:C.

“Also recorded” adds a separate entry of the source.

Consider [CARGETARATFAYWGQGC], NH2 (C-C) [Rb9], for which the “protection against lung nodules” value in assay [1] is reported as “No protection”. Besides, in [2], the subcutaneous tumor growth entry is given as “significantly delayed”. Besides, the “IL-12 production in splenocytes” value in assay [3] (no stimulus necessary) is reported as “comparable in the three groups”. Moreover, the “IFN-gamma production in splenocytes” value in [3] (splenocytes with tumor cell lysate 72 h, relative to untreated control) is reported as “increased”. Besides, in assay [3] (with tumor cell lysate), the “IL-10 production in splenocytes” value is “no effect” and the “TNF-alpha production in splenocytes” value is reported as “no effect”. Moreover, in assay [3] (with tumor cell lysate, relative to untreated control), the “IL-6 production in splenocytes” value is “decreased”. In addition, in [4], the “reactivity of sera with B16F10-Nex2 cells, i.d. relative to i.p. administration” value is 4-5 times. Moreover, in assay [5] (setting [11]), the “CD40 expression over Poly I:C” value is “stimulated CD40 over Poly I:C much like Rb9” and the “CD86 expression over Poly I:C” value is on record as “stimulated CD86 over Poly I:C”. Besides, in [5] (100 μg/ml peptide, with or without Poly I:C), the “expression of CD80” value is “similar”. The ERK1/2 phosphorylation result in assay [6] (DCs pre-incubated with peptide 6 h, then rMIF) is given as “reduced p-ERK1/2”. Also, in assay [6] (DCs pre-incubated with peptide 6 h, then rMIF, early (2 min), vs rMIF alone), the “Akt phosphorylation (Ser473)” value is “Phosphorylation increased even more”. In addition, in assay [6] (DCs pre-stimulated 6 h, then recombinant-MIF, 5, 10 and 20 min), the “NFkB p65 phosphorylation (Ser536)” value is listed as “tended to attenuate the MIF response; also recorded: decreased intracellular NFkB p65 phosphorylation”. In addition, the “phosphorylation of IKKαβ and IkBα” value in assay [6] (DCs pre-stimulated 6 h, then recombinant-MIF, short incubation) is “tended to attenuate the MIF response; also recorded: decreased IKKαβ and IkBα”. The “lympho-stimulatory ability of mo-DC” value in [7] is listed as “further enhance the lympho-stimulatory ability”. Also, in assay [8], the “ability of "defective" mo-DC to induce allogeneic T cell proliferation” value was “enhanced the ability” and the “lympho-stimulatory activity of "normal" mo-DC” value was “inhibited the lympho-stimulatory activity”. For the same substance, the CD40 expression entry in assay [9] is “regulated CD40 expression”. In addition, the “expression of CD80 and CD86” value in [9] (Rb9 mainly at 50 μg/ml) is given as “significantly stimulated”. Besides, the “in vivo protection against metastatic melanoma by CDRs of RebMab200” value in assay [10] is listed as “displayed this in vivo protection”.

Source of the values: patent US11479604B2, “Immunomodulatory peptides and methods for modulating the immune system in a subject” (Recepta Biopharma S.A., priority 2017, dated 2022).
